Reference: patent publication US20050107315A1, “Mammary-associated serum amuloid a3 promoter sequences and used for same” (Board of Regents of the University of Nebraska, priority 2001, published 2005)

Legend:
MUC3 mRNA = MUC3 mRNA induction in intestinal epithelial cells (MUC3 mRNA/28S rRNA ratio); format: cell-based, human; conditions: for MUC3 mRNA/28S rRNA ratio, mean / MUC3 mRNA stimulation (in words): peptides at 50 μg/ml, 30 minutes at 37° C.; for MUC3 mRNA/28S rRNA ratio, mean / MUC3/28S rRNA ratio, mean: control = 100; for MUC3 mRNA stimulation (in words): versus control; for MUC3/28S rRNA ratio, mean: 30 min 37° C.
Description: (§1) Different mucin genes have been identified and to date, thirteen human mucin genes have been identified. However, MUC3 mucin is the predominant small intestinal mucin. It has previously been shown that the MUC3 mucins are effective in preventing the adherence of enteropathogenic Escherichia coli (EPEC) to intestinal epithelial cells. […] It is also well known that breast-feeding infants are far less susceptible to infectious diarrhea than formula fed infants. There are a number of theories why this is so, but it is hypothesized that milk-associated amyloid (colostrum SAA) may be an important inducer of MUC3 gene expression. Applicant has evaluated MUC3 mRNA expression using an in vitro human cell culture assay system. […] To further explore this finding, Applicant has evaluated the functional specificity of the N-terminal peptide sequence of colostrum SAA by evaluation of MUC3 expression in the same in vitro assay using colostrum SAA N-terminal peptide sequences that have been randomly scrambled and a colostrum SAA peptide sequence downstream of the N-terminal sequence. If the expression of MUC3 is increased then intestinal cells grown in the presence of colostrum SAA should have a greater capacity to inhibit adherence of bacterial pathogens. This was studied (FIG. 2B) using EPEC in an in vitro assay system pre-incubated with colostrum SAA in the cell culture medium. Enteropathogenic E. coli are non-invasive, non-toxin producing pathogens that have been recognized as a significant cause of diarrhea in third world countries and in day care settings in developed countries. Future studies will evaluate the benefits of colostrum SAA in in vivo studies as well as characterized animal equivalent to human EPEC. Colostrum associated SAA provides a means to naturally upregulate the innate protective mechanisms of the human intestine and would provide a novel form of therapy to a common problem that occurs all too often in the third world leads to death of infants and in the developed world countries and leads to significant morbidity and cost. Thus, this is an effective, natural, non-drug/chemical therapy for all infectious diarrhea.
(§2) These four peptides were used in a cell culture assay designed to evaluate them for their properties of inducing mucin (MUC) mRNA production, either MUC3 or MUC2 according to the methods described by Mack et al. (Biochem. Biophys. Res. Commun. 199: 1012-1018, 1994 and Am J Physiol. Vol. 4, part 1, pg. G841-950, 1999).
Intestinal epithelial cells, Mack et al. 1994, 1999, were exposed to the N-terminal 10 amino acid bovine colostrum-SAA peptide at various concentrations for 30 minutes incubation at 37° C. The cells were incubated an additional hour following replacement of the test medium with fresh medium without peptide and then the total cellular mRNA isolated and analyzed for MUC3 specific mRNA.
MUC3 stimulating activity of the N-terminal 10 amino acid bovine colostrum-SAA peptide was compared to the activity of the “Limited Scramble”, the “Total Scramble” and “C-Terminal peptides”. Optimum time and temperature of incubation and concentration of peptides was for 30 minutes at 37° C. at 50 μg/ml respectively.

MUC2 mRNA = MUC2 mRNA induction in intestinal epithelial cells (MUC2 mRNA/28S rRNA ratio); format: cell-based, human; conditions: for MUC2 mRNA/28S rRNA ratio, mean: conditions favoring MUC2 expression, peptides at conditions optimized for MUC3 (50 μg/ml, 30 min), control = 100
Description: as §2
MUC2 Stimulation. To address whether the N-Terminal 10 amino acid bovine colostrum-SAA peptide would stimulate mRNA synthesis for MUC2 production, intestinal epithelial cells were cultured under conditions favoring MUC2 expression rather than MUC3. All peptides were used at concentrations and conditions that were previously optimized for MUC3 stimulation. None of the peptides stimulated the production of MUC2 mRNA. […] Additionally, conditions were changed to 2× the optimum MUC3 incubation time (1 hr). […] The evidence strongly indicates specificity of function in stimulating the production of a mucin produced mainly in the small intestine (MUC3) over one produced primarily in the large intestine (MUC2).

[1] = system: EPEC adherence to HT29 human intestinal cells; test: Inhibition of EPEC adherence to HT29 cells (FIG. 4B); format: cell-based, enteropathogenic Escherichia coli; conditions: before 10^6 CFU/well EPEC, 3 h incubation, P<0.03
Experimental: FIG. 4B is a graph showing the comparative inhibition of EPEC adherence to HT29 human intestinal cells grown in a glucose-free galactose-containing cell culture medium to enhance MUC3 expression. Each well received either 10^9 CFU of the probiotic L. rhamnosus strain GG (LrGG), a single dose (1×) of the 10-mer peptide at 50 μg/mL (LS, Bov50, or Hum50) or at 250 μg/mL (Bov250 or Hum250), or two separate doses (2×) at 1 h intervals of the 10-mer peptide at 250 μg/mL. Samples were incubated at 37° C. with the HT29 cells for either a total of 1 h (single dose, 1×) or 2 h (two doses, 2×) prior to the addition of 10^6 CFU/well of EPEC. After a 3 h incubation, EPEC adherent to the HT29 cells were quantified by determining CFU/well. Results are expressed as means ±SEM of 2-6 independent experiments run in triplicate. Amino acid sequences for the 10-mer peptides are detailed in Table 1 referred to on page 37.
as §1, with “Colostrum associated SAA provides a means to naturally upregulate the innate protective mechanisms of the human intestine and would provide a novel form of therapy to a common problem that occurs all too often in the third world leads to death of infants and in the developed world countries and leads to significant morbidity and cost. Thus, this is an effective, natural, non-drug/chemical therapy for all infectious diarrhea.” left out

[2] = system: Bovine MAC-T mammary gland epithelial cells; test: Colostrum-SAA production by MAC-T cells stimulated with prolactin (ELISA of growth media); format: cell-based
Experimental: Bovine MAC-T mammary gland epithelial cells were obtained from ATCC (CRL-10274) and cultured according to recommended conditions (Turner, J D and Huynh H. Immortalized bovine mammary epithelial cell line. U.S. Pat. No. 5,227,301 dated Jul. 13, 1993). MAC-T cells were cultured on Dulbecco's Modified Eagles Media (DMEM) supplemented with 10% Fetal Calf Serum (FCS), 5 μg/ml insulin, 1μg/ml hydrocortisone and fungizone. Cells were incubated at 37° C. with 5% CO2. For colostrum-SAA production the cells were seeded onto type I Collagen coated plates. After 14 hours of incubation, the cells were washed twice with Dulbecco's phosphate buffered saline (DPBS) and incubated in media (DMEM, 5 μg/ml insulin, 1 μg/ml hydrocortisone and 2.5% FCS) supplemented with prolactin from sheep pituitary gland (5 μg/ml) for the stimulation of colostrum-SAA production. Approximately one half of the media was replaced daily with fresh prolactin supplemented media. Standard ELISA for the quantitation of SAA was used to assay aliquots of the growth media collected on the different days for the presence of colostrum-SAA.
Cells were kept in culture for 41 days in media supplemented with prolactin. Levels of colostrum-SAA production reached a maximum of almost 3000 ng/ml.

[3] = Isoelectric focusing / 2-D gel of SAA preparations; format: physicochemical, bovine
Description: The PROTEIN IEF Cell (BioRad) was used for the isoelectric focusing of the various SAA preparations. Ready Strip IPG Strips (BioRad Laboratories) with a pH range of 3-10 were used for the IEF. The second dimension (2-D) of the protein analysis was done by subjecting the IPG strips to 12% SDS-PAGE gel and electroblotting onto a PVDF membrane. The strips and blots were done in duplicate so that one of the blots could be stained with a protein stain, Coomassie Brilliant Blue, (CBB) and the other stained with the anti-SAA monoclonal antibody for the identification of the SAA protein isoforms. The samples also contained internal IEF standards (BioRad Laboratories) so that isoelectric point (pI) of each SAA isoforms could be determined. By comparing the antibody stained spots to the spots of the standards stained with CBB the apparent pI of the SAA isoforms could be determined. All of these procedures were done according to the protocol recommended by the manufacturer.
The proteins subjected to the IEF and 2-D analysis were either affinity purified as described for the cell culture fluid or, in the case of the serum only semi-purified by hydrophobic chromatography. SAA is a highly hydrophobic molecule and will bind readily to Octyl Sepharose beads and then under the appropriate conditions can be eluted off the matrix. Briefly, serum with an elevated SAA level was tumbled for one hour with an equal volume of Octyl Sepharose CL-4B gel to allow for hydrophobic binding of the proteins from the serum to the gel. […]
The PROTEIN IEF Cell (BioRad) was used for the isoelectric focusing of the MAA preparations. […] Ready strip IPG Strips (BioRad Laboratories) with a pH range of 3-10 and 7-10 were used for the IEF. […] By comparing the spots stained with the antibody on the blot of the 2D gel from the MAA purified from colostrum and the MAA from the culture fluid of MAC-T cells stimulated with LPS, the similarities of the isoforms could be determined. Each sample was first analyzed on a pH 3-10 IPG strip for the first dimension of separation and then a subsequent sample analyzed on a pH 7-10 IPG strip.

Question: With “GKFAWEGMTL [Total Scramble, control peptide, amino acids of the entire N-Terminal peptide arranged in random order, reference compound]” as the molecule, how does the “MUC3 mRNA/28S rRNA ratio, mean” value (MUC3 mRNA) read?
Answer: The value was 109.333.

Question: And the “MUC2 mRNA/28S rRNA ratio, mean” value (MUC2 mRNA)?
Answer: Its value is 65.833.

Question: Which results are given for GWLTFLKAAG [Hum]?
Answer: EPEC adherence to HT29 cells relative to untreated cells (in words) ([1]; 10-mer peptide at 50 μg/mL): significantly decreased adherence of EPEC; EPEC adherence to HT29 cells relative to untreated cells (in words) ([1]; 10-mer peptide at 250 μg/mL): significantly decreased adherence of EPEC

Question: Which “MUC3 mRNA/28S rRNA ratio, mean” value (MUC3 mRNA) does the source give for “MWGLTKFEAG [Limited Scramble, Bovine MAA with TFLK motif scrambled]” here?
Answer: The value was 95.000.

Question: What about the “MUC3 mRNA stimulation (in words)” value (MUC3 mRNA) of the same molecule?
Answer: The value was “lack of stimulation”.

Question: And the “MUC2 mRNA/28S rRNA ratio, mean” value (MUC2 mRNA)?
Answer: Its value is 87.167.

Question: For MWGTFLKEAG [N-terminal], which “optimum concentration for MUC3 mRNA stimulation” value (MUC3 mRNA; 30 minutes incubation at 37° C.) is on record?
Answer: The value was 50 µg/mL.

Question: What about the “MUC3/28S rRNA ratio, mean” value (MUC3 mRNA; peptide concentration 1 (μg/ml)) of the same molecule?
Answer: The value was 105.429.

Question: And the “MUC3/28S rRNA ratio, mean” value (MUC3 mRNA; peptide concentration 10 (μg/ml))?
Answer: Its value is 105.857.

Question: What about the “MUC3/28S rRNA ratio, mean” value (MUC3 mRNA; peptide concentration 25 (μg/ml)) of the same molecule?
Answer: Its value is 145.000.

Question: And the “MUC3/28S rRNA ratio, mean” value (MUC3 mRNA; peptide concentration 50 (μg/ml))?
Answer: Its value is 220.500.

Question: What about the “MUC3/28S rRNA ratio, mean” value (MUC3 mRNA; peptide concentration 100 (μg/ml)) of the same molecule?
Answer: Its value is 103.125.

Question: And the “MUC3 mRNA/28S rRNA ratio, mean” value (MUC3 mRNA)?
Answer: The value was 174.833.

Question: And the “MUC3 mRNA stimulation (in words)” value (MUC3 mRNA)?
Answer: Its value is “increased MUC3 mRNA expression”.

Question: And the “MUC3 mRNA stimulation (in words)” value (MUC3 mRNA; listed as N-Terminal)?
Answer: Its value is “the only peptide that stimulated MUC3 mRNA statistically significantly over the control values”.

Question: What about the “EPEC adherence to HT29 cells relative to untreated cells (in words)” value ([1]; 10-mer peptide at 50 μg/mL) of the same molecule?
Answer: Its value is “significantly decreased adherence of EPEC”.

Question: What about the “EPEC adherence to HT29 cells relative to untreated cells (in words)” value ([1]; 10-mer peptide at 250 μg/mL) of the same molecule?
Answer: The value was “significantly decreased adherence of EPEC”.

Question: And the “MUC2 mRNA stimulation (in words)” value (MUC2 mRNA; 100 and 500 μg/ml, and 2× incubation time (1 hr))?
Answer: The value was “None of these changes resulted in MUC2 mRNA increase over control values”.

Question: What about the “MUC2 mRNA stimulation (in words)” value (MUC2 mRNA; concentrations and conditions optimized for MUC3 stimulation) of the same molecule?
Answer: The value was “not significantly different”.

Question: What about the “MUC2 mRNA/28S rRNA ratio, mean” value (MUC2 mRNA) of the same molecule?
Answer: The value was 101.167.

Question: Which “MUC3 mRNA/28S rRNA ratio, mean” value (MUC3 mRNA) does the source give for “SAADAAQRGPQQA [C-terminal, control 10 amino acid peptide in which the first 7 were from residues 62-69 of bovine SAA, reference compound]” here?
Answer: Its value is 111.333.

Question: And the “MUC2 mRNA/28S rRNA ratio, mean” value (MUC2 mRNA)?
Answer: The value was 67.500.

B1: prolactin: prolactin from sheep pituitary gland (protein, UniProt P01240 31-229, looked up)
Prolactin: TPVCPNGPGNCQVSLRDLFDRAVMVSHYIHNLSSEMFNEFDKRYAQGKGFITMALNSCHTSSLPTPEDKEQAQQTHHEVLMSLILGLLRSWNDPLYHLVTEVRGMKGVPDAILSRAIEIEEENKRLLEGMEMIFGQVIPGAKETEPYPVWSGLPSLQTKDEDARHSAFYNLLHCLRRDSSKIDTYLKLLNCRIIYNNNC
Question: Which results are given for B1?
Answer: maximum level of colostrum-SAA production ([2]; media supplemented with prolactin 5 μg/ml, 41 days in culture, collagen coated plates): ~3000 ng/mL; day by which measurable quantities of colostrum-SAA could be detected ([2]; prolactin at 5 μg/ml, MAC T cells, 13 days of stimulation (FIG. 2)): ≤ 1 days

B2: colostrum-SAA: bovine mammary-associated serum amyloid A 3, purified from colostrum or MAC-T cell culture fluid (protein)
chain: QRWGTFLKEAGQGAKDMWRAYQDMKEANYRGADKYFHARGNYDAARRGPGGAWAAKVISNARETIQGITDPLFKGMTRDQVREDSKADQFANEWGRSGKDPNHFRPAGLPDKY
Question: For B2, which pI ([3]; from both colostrum and MAC-T cell culture fluid (prolactin), pH 3-10 IPG strips) is on record?
Answer: Its pI is “greater than 8”.

Question: What about the “apparent pI” value ([3]; pH 3-10 IPG strips, internal IEF standards) of the same molecule?
Answer: The value was 9.4-9.6.

Question: And the pI ([3]; purified from culture fluid of MAC-T cells stimulated with LPS, only one isoform, pH 3-10 and 7-10 IPG strips)?
Answer: Its pI is 9.4-9.6.
